From patent US10889553B2, “Asymmetric triazole benzamide derivatives and the compositions and methods of treatment regarding the same” (NysnoBio Ireland DAC, priority 2017, dated 2021) come the findings set out here.

In one data set the test system is HCT-116 (colon). Description: Cancer cell proliferation assay (acid phosphatase). The following applies: Homo sapiens. The data set is classed as cell-based. The gist of the method:
(§1)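 Seed 4×10^4 cells/ml, overnight 37° C./5% CO2; add compound (varying conc., triplicate); incubate 72 hrs; wash PBS; acid phosphatase substrate pH 5.5, 2 h; stop NaOH; read 405/620 nm; % inhibition vs DMSO.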

For the next data set, the system named is Ovarian (OAW42). Description: Cancer cell proliferation assay (acid phosphatase). The data set is classed as cell-based. The following applies: Homo sapiens, OAW-42; Table 6E. The gist of the method:
as §1

Another data set relates to Mantle Cell Mino. Description: Cancer cell proliferation assay (acid phosphatase). Format: cell-based. The following applies: Homo sapiens, Table 6E. In short, it runs like this:
as §1

The test system of another data set is TOV-112D (ovarian). Description: Cancer cell proliferation assay (acid phosphatase). Format: cell-based. The following applies: Homo sapiens, TOV112D. In short, it runs like this:
as §1

In a further data set the test system is Ovarian (A2780). Description: Cancer cell proliferation assay (acid phosphatase). The settings on record: Homo sapiens, Table 6E. The data set is classed as cell-based. The gist of the method: as §1
For a further data set, the system named is JEKO-1 (lymophoma). Description: Cancer cell proliferation assay (acid phosphatase). The following applies: Homo sapiens. Format: cell-based. The gist of the method:
as §1

The next data set concerns TOV-21G (ovarian). Description: Cancer cell proliferation assay (acid phosphatase). Format: cell-based. The settings on record: Homo sapiens, TOV21G. The gist of the method:
as §1

The next data set concerns A549 (lung). Description: Cancer cell proliferation assay (acid phosphatase). The data set is classed as cell-based. The following applies: Homo sapiens, A549, 72 h, Table 6A; 72 hrs; read-out: A549 IC50. In short, it runs like this:
as §1

For the next data set, the system named is LS-174T (colon). Description: Cancer cell proliferation assay (acid phosphatase). Format: cell-based. The settings on record: Homo sapiens, LS174T; Table 6A; 72 hrs. In short, it runs like this: as §1
The next data set deals with T1, Parkin ligase (Homo sapiens, UniProt O60260).
T1 sequence (O60260 1-465): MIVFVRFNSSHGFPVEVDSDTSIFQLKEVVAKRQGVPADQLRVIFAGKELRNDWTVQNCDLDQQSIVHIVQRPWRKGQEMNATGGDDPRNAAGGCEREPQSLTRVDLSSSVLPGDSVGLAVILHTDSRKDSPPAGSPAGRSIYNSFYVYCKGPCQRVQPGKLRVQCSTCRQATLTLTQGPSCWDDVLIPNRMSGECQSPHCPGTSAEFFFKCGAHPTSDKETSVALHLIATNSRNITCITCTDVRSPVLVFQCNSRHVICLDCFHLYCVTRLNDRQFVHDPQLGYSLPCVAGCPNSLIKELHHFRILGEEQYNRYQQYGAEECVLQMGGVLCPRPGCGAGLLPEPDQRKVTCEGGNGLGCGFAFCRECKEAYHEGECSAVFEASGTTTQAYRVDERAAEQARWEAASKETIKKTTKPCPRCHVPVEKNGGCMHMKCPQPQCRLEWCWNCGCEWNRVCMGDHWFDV
Description: Activity-Based Probe Assay using Ubiquitin vinyl sulfone probe (TR-FRET). The data set is classed as biochemical. The following applies: heat activated Parkin, HA-Ub-VS probe, activation EC50; read-out: Probe Assay EC50 (μM) [Example 2]. In short, it runs like this:
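Heat-activated His-Parkin (5 min, 58 °C; 40 nM) was preincubated 15 min with compound, then reacted 60 min at 22 °C with 70 nM HA-Ub-VS in 50 mM HEPES pH 8.5, 150 mM NaCl, 0.01% Tween 20, 0.1% BSA. Probe labelling was read by anti-His-Eu/anti-HA-XL665 TR-FRET (665/615 ratio). % activation was normalized to DMSO and 100 nM control activator, then fitted with a four-parameter curve (Bottom=0, Top=100).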
On the technique in general: Time-resolved FRET reads energy transfer from a long-lived donor to a nearby acceptor.

Data set [1] can be described thus: Microsomal stability assay, rat liver microsomes. Format: in vitro ADME. The settings on record: pH 7.4; rat liver microsomes 1.0 mg/mL, 1 μM compound, NADPH; read-out: RLM t1/2. As to the method:
(§2) Compounds were also tested for metabolic stability in both rat liver microsomes (RLM) and the compounds are tested for human liver microsomes (HLM) and their half-life is calculated (See Tables 5A and 5B). The assay was performed as follows. The total volume for each incubation was 250 μL. A 100 μM DMSO solution of compound (diluted from 10 mM stock solution) was spiked into 50 mM KH2PO4 (pH 7.4) buffer containing liver microsome at a concentration of 1.0 mg/mL. The reaction was initiated by the addition of 50 μL of 1 mM NADPH. The final concentration of each compound was 1 μM (1% DMSO). The positive controls, phenacetin for CYP1A2, diclofenac for CYP2C9, omeprazole for CYP2C19, dextromethorphan for CYP2D6 and midazolam for CYP3A4 were added to a separate tube with the final substrate concentrations of 1 μM (1% DMSO) for evaluating the enzyme activities in the liver microsomes. At 0, 15, 30 and 60 min, an aliquot of 15 μL reaction mixtures were removed and 200 μL of methanol (with internal standard of 25 ng/mL propranolol) was added to quench the reaction. The resulting mixture was centrifuged and supernatant was used for LC-MS/MS analysis.
(§3) The signals for each compound, or the metabolites for the probe substrates and the internal standard were integrated and the peak area ratios to internal standard were generated. Percent parent remaining at a specified timepoint was calculated based on the peak area ratios at time 0 (as 100%) for in vitro metabolic stability studies in liver microsome and hepatocyte. The observed rate constant (kobs) for the metabolism of substrates was calculated by plotting the natural log of percentage substrate remaining versus time of incubation with the slope being kobs. The half-life (T1/2) was calculated according to the following equation: T1/2=[…]

The nature of data set [2]: Microsomal stability assay, human liver microsomes. The data set is classed as in vitro ADME. The settings on record: pH 7.4; human liver microsomes 1.0 mg/mL, 1 μM compound, NADPH; read-out: HLM t1/2. As to the method: as §2, §3
[3] abbreviates: HCT-116, 72 h, Table 6A, 72 hrs, read-out: HCT-116 IC50.
The mark [4] stands for this setting: 72 h, Table 6A, 72 hrs, read-out: TOV-21G IC50.
Setting [5] is: Table 6B, 72 hrs, read-out: TOV-112D IC50.
Where [6] appears, read: Table 6B, 72 hrs, read-out: JEKO-1 IC50.

Molecules are shown by their SMILES. Where two headings read alike, the source gives them in different places.

For `Cc1ccccc1C(=O)Nc1nc(NC(=O)c2ccccc2C)n(-c2ccccc2)n1` [Compound F, 2-methyl-N-[5-[(2-methylbenzoyl)amino]-1-phenyl-1,2,4-triazol-3-yl]benzamide], the IC50 with HCT-116 (colon) (HCT-116, Table 6E, read-out: Proliferation IC50 (nM) CRC HCT-116) is 1300 nM; in the data set on Ovarian (OAW42), greater than 2500 nM; in the data set with Mantle Cell Mino, 884 nM; in the data set on TOV-112D (ovarian) (Table 6E, read-out: Proliferation IC50 (nM) Ovarian TOV112D), 850 nM; in the data set with Ovarian (A2780), 1300 nM; in the data set on JEKO-1 (lymophoma) (Table 6E, read-out: Proliferation IC50 (nM) Mantle Cell Jeko-1), greater than 2500 nM. In addition, in the data set on TOV-21G (ovarian) (Table 6E, read-out: Proliferation IC50 (nM) Ovarian TOV21G), the IC50 is 1500 nM.

As for `Cc1cccc(-c2nc(NC(=O)c3ccccc3C)n(-c3ccc(OC(F)(F)F)cc3)n2)n1` [Compound 126], the IC50 with HCT-116 (colon) (setting [3]) was found to be 1700 nM; with A549 (lung), 1400 nM; in the data set with LS-174T (colon), 1000 nM; in the data set with TOV-21G (ovarian) (setting [4]), 1900 nM. Moreover, the EC50 at Parkin ligase is 2 µM.

`Cc1ccccc1C(=O)Nc1nc(-c2ccccc2O)nn1-c1ccc(C(F)(F)F)cc1` [Compound 156]: the half-life at 1 μM in data set [1] is 23.7 min; in data set [2] it was 158 min. The IC50 amounted to 240 nM in the data set with HCT-116 (colon) (setting [3]), 40 nM in the data set on TOV-112D (ovarian) (setting [5]) and 80 nM in the data set with JEKO-1 (lymophoma) (setting [6]).

Consider `Cc1ccccc1C(=O)Nc1nc(-c2ccccc2O)nn1-c1ccc(Cl)cc1` [Compound 155], for which the half-life at 1 μM in data set [1] stood at 17.4 min; in data set [2], 63.6 min. Besides, the values for the IC50 in the data set with HCT-116 (colon) (setting [3]), with TOV-112D (ovarian) (setting [5]) and in the data set with JEKO-1 (lymophoma) (setting [6]) were 240 nM, 40 nM and 40 nM, respectively.

For `Cc1ccccc1C(=O)Nc1nc(NC(=O)c2ccccc2C)n(-c2ccc(N3CCC3)cc2)n1` [Compound 64], the IC50 in the data set on HCT-116 (colon) (setting [3]) was 2300 nM; in the data set on A549 (lung) it was 2400 nM; in the data set with LS-174T (colon) it was 2600 nM; in the data set on TOV-21G (ovarian) (setting [4]) it was 2400 nM. In addition, the EC50 at Parkin ligase was determined as 8 µM.

As for `Cc1cccc(-c2nc(NC(=O)c3ccccc3C)n(-c3ccc(Cl)cc3)n2)n1` [Compound 127], the IC50 was 1700 nM in the data set on HCT-116 (colon) (setting [3]), 1100 nM in the data set with A549 (lung), 1600 nM in the data set with LS-174T (colon) and 2100 nM in the data set on TOV-21G (ovarian) (setting [4]). Also, the 50% effective concentration (EC50) on Parkin ligase is 2 µM.

As to `Cc1ccc(O)c(-c2nc(NC(=O)c3ccccc3C)n(-c3ccc(OC(F)(F)F)cc3)n2)c1` [Compound 159], the values for the half-life at 1 μM in data set [1] and in data set [2] were 158 min and 178 min, respectively. Also, the values for the IC50 with HCT-116 (colon) (setting [3]), in the data set on TOV-112D (ovarian) (setting [5]) and with JEKO-1 (lymophoma) (setting [6]) were 300 nM, 60 nM and 90 nM, respectively.

Take `Cc1ccccc1C(=O)Nc1nc(-c2ccccc2O)nn1-c1cccc(F)c1` [Compound 157]: the half-life at 1 μM in [1] stood at 16.5 min; in data set [2] it was 42 min. Besides, the IC50 turned out to be 350 nM in the data set on HCT-116 (colon) (setting [3]), 120 nM with TOV-112D (ovarian) (setting [5]) and 80 nM with JEKO-1 (lymophoma) (setting [6]).

For the compound `Cc1ccccc1C(=O)Nc1nc(NC(=O)c2ccno2)n(-c2ccc(C(F)(F)F)cc2)n1` [Compound 75], the IC50 came to 2400 nM with HCT-116 (colon) (setting [3]), 2500 nM with A549 (lung) and 1000 nM in the data set on LS-174T (colon). Further, at Parkin ligase, the EC50 was 4 µM.

`COc1ccccc1-c1nc(NC(=O)c2ccccc2C)n(-c2ccc(OC(F)(F)F)cc2)n1` [Compound 154]: the half-life at 1 μM was determined as 102 min in [1] and 133 min in [2]. Also, in the data set with HCT-116 (colon) (setting [3]), the IC50 is greater than 2500 nM.

Turning to `Cc1ccccc1C(=O)Nc1nc(-c2cc(Cl)ccc2O)nn1-c1ccc(OC(F)(F)F)cc1` [Compound 158], the half-life at 1 μM in data set [1] stood at 169 min; in data set [2] it was 165 min. Besides, the results for the IC50 in the data set on HCT-116 (colon) (setting [3]), in the data set with TOV-112D (ovarian) (setting [5]) and in the data set on JEKO-1 (lymophoma) (setting [6]) were 240 nM, 190 nM and 200 nM, respectively.

What is called EC50 is the concentration at which the effect is half-maximal.
